Assay results taken from patent publication US20030175254A1, “Method of obtaining purified enterochromaffin cells and methods of using same” (priority 2001, published 2003).

Test system: Intestinal EC Cells
Experiment: Serotonin release from cultured rat intestinal (ileal) EC cell fractions, serotonin EIA
Format: cell-based
Conditions: 60 minutes, 100,000 cells cultured overnight
Protocol: Male Sprague-Dawley rats (n=5 per preparation) were euthanized and the ileum was completely removed and divided into 2-3 pieces. Following end-ligation, these pieces of intestine were everted and filled with an enzyme mix of Pronase E (0.7 mg/mL), and collagenase (0.25 mg/ml). Cells were separated from the muscularis by alternative switching between a calcium containing Respiration medium and a 2 mM EDTA-containing digestive medium (with shaking). A total of 1-2×10^8 cells were obtained from each preparation. Five fractions of cells (F1-F5) were separated by counterflow-elutriation using flow rates of 25 ml/min at 2,500 rpm. Cells (100,000) were cultured overnight in Dulbecco's modified Eagles medium (DMEM)-F12 medium supplemented with 2 mg/ml bovine serum albumin, 5% fetal bovine serum, 5 mg/l gentamicin, 5 mg/l insulin, 5 mg/l transferring, 5 μg/l sodium selenite, and 1 nM hydrocortisone). After removal of the medium, fresh culture medium containing agonists (PACAP, galanin, forskolin, each at 10 nM) was added to the cells for 60 minutes. This medium was removed and the serotonin measured using an serotonin EIA kit and expressed as ng serotonin/100,000 cells/60 min.

Compound | serotonin release, fold versus controls (agonist 10 nM, positive control, p<0.05) | serotonin release versus controls (10^-8 M, negatively regulated serotonin release)
C=C[C@@]1(C)CC(=O)[C@]2(O)[C@@]3(C)[C@@H](O)CCC(C)(C)[C@@H]3[C@H](O)[C@H](OC(C)=O)[C@@]2(C)O1 [Forskolin] | 2.1±0.14 fold | –
pituitary adenylate cyclase stimulating peptide [PACAP] | – | 0.88±0.06
